Measurements as given in patent US10597388B2, “Pyridazinone herbicides” (FMC CORPORATION, priority 2014, dated 2020).

Tests used:
Experiment in all cases: Test C greenhouse herbicide test, pre- and postemergence
Assay type in all cases: in vivo
[1] = test system: galium (catchweed bedstraw, Galium aparine)
Outline: (§1)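 Visual 0–100 injury score (100 = complete control) taken against untreated controls after 13–15 d in greenhouse. Test chemicals, formulated in solvent plus surfactant, applied preemergence to seeds in loam–sand soil or postemergence to 1- to 4-leaf plants (2–18 cm).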

[2] = test system: foxtail, giant (giant foxtail, Setaria faberii)
Outline: as §1

[3] = test system: barnyardgrass (Echinochloa crus-galli)
Outline: as §1

[4] = test system: morningglory (Ipomoea coccinea)
Outline: as §1

[5] = test system: pigweed (Amaranthus retroflexus)
Outline: as §1

[6] = test system: wheat (winter wheat, Triticum aestivum)
Outline: as §1

[7] = test system: blackgrass (Alopecurus myosuroides)
Outline: as §1

[8] = test system: crabgrass, large (large crabgrass, Digitaria sanguinalis)
Outline: as §1

[9] = test system: ryegrass, Italian (Italian ryegrass, Lolium multiflorum)
Outline: as §1

[10] = test system: waterhemp (common waterhemp, Amaranthus rudis)
Outline: as §1

[11] = test system: lambsquarters (Chenopodium album)
Outline: as §1

[12] = test system: oilseed rape (Brassica napus)
Outline: as §1

[13] = test system: velvetleaf (Abutilon theophrasti)
Outline: as §1

[14] = test system: ragweed (common ragweed, Ambrosia elatior)
Outline: as §1

[15] = test system: corn (Zea mays)
Outline: as §1

[16] = Postemergence, 31 g ai/ha, scale 0 to 100 (0 no effect, 100 complete control)
[17] = Postemergence, 62 g ai/ha, 0 to 100 scale (0 no effect, 100 complete control)
[18] = Postemergence, 250 g ai/ha, scale 0 to 100, 0 is no effect, 100 is complete control
[19] = postemergence, 125 g ai/ha, scale 0 to 100, 0 no effect, 100 complete control

## Cc1nn(C)c(=O)c(-c2c([N+](=O)[O-])ccc3ccccc23)c1O [Compound 165]
[1]; [16]
  Plant response rating, Galium: 85
[1]; [17]
  Galium plant response rating: 85
[1]; [18]
  Plant response rating, Galium: 100
[1]; [19]
  Galium plant response rating: 98
[2]; [16]
  Plant response rating, Foxtail, Giant: 0
[2]; [17]
  Foxtail, Giant plant response rating: 5
[2]; [18]
  Plant response rating, Foxtail, Giant: 25
[2]; [19]
  Foxtail, Giant plant response rating: 15
[3]; [16]
  Plant response rating, Barnyardgrass: 10
[3]; [17]
  Barnyardgrass plant response rating: 15
[3]; [18]
  Plant response rating, Barnyardgrass: 25
[3]; [19]
  Barnyardgrass plant response rating: 25
[4]; [16]
  Plant response rating, Morningglory: 75
[4]; [17]
  Morningglory plant response rating: 70
[4]; [18]
  Plant response rating, Morningglory: 95
[4]; [19]
  Morningglory plant response rating: 85
[5]; [16]
  Plant response rating, Pigweed: 75
[5]; [17]
  Pigweed plant response rating: 70
[5]; [18]
  Plant response rating, Pigweed: 85
[5]; [19]
  Pigweed plant response rating: 75
[6]; [16]
  Plant response rating, Wheat: 5
[6]; [17]
  Wheat plant response rating: 5
[6]; [18]
  Plant response rating, Wheat: 15
[6]; [19]
  Wheat plant response rating: 10
[7]; [16]
  Plant response rating, Blackgrass: 5
[7]; [17]
  Blackgrass plant response rating: 15
[7]; [18]
  Plant response rating, Blackgrass: 25
[7]; [19]
  Blackgrass plant response rating: 20
[8]; [16]
  Plant response rating, Crabgrass, Large: 0
[8]; [17]
  Crabgrass, Large plant response rating: 5
[8]; [18]
  Plant response rating, Crabgrass, Large: 20
[8]; [19]
  Crabgrass, Large plant response rating: 20
[9]; [16]
  Plant response rating, Ryegrass, Italian: 40
[9]; [17]
  Ryegrass, Italian plant response rating: 50
[9]; [18]
  Plant response rating, Ryegrass, Italian: 70
[9]; [19]
  Ryegrass, Italian plant response rating: 55
[10]; [16]
  Plant response rating, Waterhemp: 65
[10]; [17]
  Waterhemp plant response rating: 70
[10]; [18]
  Plant response rating, Waterhemp: 75
[10]; [19]
  Waterhemp plant response rating: 75
[11]; [16]
  Plant response rating, Lambsquarters: 70
[11]; [17]
  Lambsquarters plant response rating: 75
[11]; [18]
  Plant response rating, Lambsquarters: 98
[11]; [19]
  Lambsquarters plant response rating: 85
[12]; [16]
  Plant response rating, Oilseed Rape: 0
[12]; [17]
  Oilseed Rape plant response rating: 0
[12]; [18]
  Plant response rating, Oilseed Rape: 5
[12]; [19]
  Oilseed Rape plant response rating: 0
[13]; [16]
  Plant response rating, Velvetleaf: 20
[13]; [17]
  Velvetleaf plant response rating: 25
[13]; [18]
  Plant response rating, Velvetleaf: 50
[13]; [19]
  Velvetleaf plant response rating: 20
[14]; [16]
  Plant response rating, Ragweed: 40
[14]; [17]
  Ragweed plant response rating: 55
[14]; [18]
  Plant response rating, Ragweed: 85
[14]; [19]
  Ragweed plant response rating: 75
[15]; [16]
  Plant response rating, Corn: 0
[15]; [17]
  Corn plant response rating: 0
[15]; [18]
  Plant response rating, Corn: 5
[15]; [19]
  Corn plant response rating: 0
